Test [1] deals with T1, human NUDT16 (wild-type) (Homo sapiens, UniProt Q96DE0). In words: Determination of kinetic parameters of NUDT16 wild-type (malachite green phosphate release assay). The conditions noted are these: for k cat/K m, This work / k cat, This work / K m, This work: Michaelis-Menten fit; for k cat, This work / K m, This work: substrate hydrolysis, 37°C; for K m, This work: buffer pH 7.5, 20 mM MgCl2; for Hydrolysis by NUDT16 (qualitative): malachite green assay, sub-μM K m not determinable. It counts as biochemical. More on the design: 6-His tag followed by TEV protease site (N, cleaved yes); made in house; host or cells: E. coli Rosetta pLysS. From the text:
To establish an assay to look for product inhibition and to understand the role of the different substituents present on the purine ring, we first wanted to assess the activity of our protein preparations and compare it to the results obtained by Iyama et al. on NUDT16 activity on different nucleotides. Contrary to the results presented in the structural biology part, we used wild-type NUDT16 (no A22V mutation) for these activity studies. Using a malachite green based activity assay for quantification of phosphate release, we determined the kinetic parameters of NUDT16 hydrolysis when incubated in the presence of ITP, XDP and ADP (S3A–S3C Fig), all of which have a suitable K m for assessment with this assay and for inhibition studies (low μM range). The results are summarized and compared in Table 1 with the literature values. […] Our K m values for XDP and ITP are in the same range as data reported in Iyama et al.. Discrepancies between the two studies can be explained by differences in the detection methods (HPLC or malachite green assay), the protein constructs (with or without His-tag) and the buffer conditions. […] However, the k cat for ADP was 15 times higher, leading to a catalytic efficiency in the same range as the one determined for XDP and ITP. Such a correlation between low affinity K m values and low apparent rate constant values is also noticeable when looking more broadly at available data for the purine based substrates.
(§1) Each sample point was obtained in the presence of 1 μM of NUDT16 (0.1 μM when assayed for activity against ITP) and various concentrations of substrates in buffer C (50 mM Tris-HCl pH 7.5, 150 mM NaCl, 20 mM MgCl2, 0.005% Tween-20, and 0.5 mM TCEP). When ITP was used as a substrate, 0.1 unit of yeast inorganic pyrophosphatase (Sigma-Aldrich) was added to the well. The activity assay was performed in 100 μl in a 96-well plate at 37°C and was stopped by addition of 25 μl of Malachite Green Working Solution (prepared as described in [42]). Plate was kept under shaking at room-temperature for 15 min, then 100 μl were transferred into a 384-well plate and the measurement of the absorbance at 630nm was carried out either on a CLARIOstar (BMG LABTECH) or a Victor^3 (PerkinElmer) reader.
(§2) The amount of free phosphate produced during the hydrolysis was estimated by comparison with a standard curve.
(§3) Experiments were performed in triplicate and data analysis was done on GraphPad Prism version 5.01 for Windows (GraphPad Software, San Diego California USA, www.graphpad.com).
(§4) For each assayed substrate, starting substrate concentrations (varying from 0.5 to 240 μM) and incubation times (from 20 to 240 min) were selected in order for the quasi-steady-state assumption to remain valid.

The target of test [2] is T1, human NUDT16 (wild-type). In words: Binding of products to NUDT16 by isothermal titration calorimetry. (In ITC the heat of successive injections is recorded.)
Protocol: NUDT16 was dialyzed against 20 mM Hepes pH 7.5, 300 mM NaCl, 20 mM MgCl2, 10% glycerol, and 0.5 mM TCEP in a Slide-a-Lyzer cassette (7kDa cut-off). […] The buffer compositions in the cell and the syringe were carefully matched such that the sole difference between them was either the protein or the nucleotide content.
Titrations were performed at 25°C using 32 injections of 1.2μl of nucleotide solutions (following a 1μl pre-injection) spaced by 120 sec into the 200 μl experimental cell on a iTC200 MicroCal instrument (GE Healthcare) at the Karolinska Institutet/SciLifeLab Protein Science Core Facility (http://psf.ki.se).
Binding isotherm and thermodynamic constants were determined through fitting experimental data against a one-site binding-model (number of sites, ΔH and K a being unconstrained during refinement) on Origin software v7.0552 (OriginLab).
Another test concerns NUDT16. The conditions noted are these: cited from earlier work; for K m, Ref. 14 / k cat, Ref. 14 / k cat/K m, Ref. 14: literature values, ref 14 (Iyama et al).
A further test addresses T2, NUDT16 A22V (Homo sapiens, UniProt Q96DE0, A22V).
T2 construct: 6-His tag followed by TEV protease site (N, cleaved yes); made in house; host or cells: E. coli Rosetta
As to the kind of experiment: Determination of kinetic parameters of NUDT16 A22V (malachite green assay). Format: biochemical. The following applies: A22V mutant, Michaelis-Menten fit. As to the method: It is worth noting that the protein construct used to obtain the two NUDT16 crystal structures harbors an A22V mutation (see Material and Methods section). […] This was confirmed by comparing the kinetic parameters of NUDT16 wild-type with those obtained with the A22V mutation (S1 Table) when NUDT16 was assayed against XDP and ITP. […] Detailed schemes of all interactions between protein, nucleotide and metals are shown on Fig 3C–3E.
as §1, §2, §3, §4
The procedure was identical whether NUDT16 wild-type or A22V was used in the assay.

Where [3] appears, read: ITC, 25°C, one binding-site model.

Read-outs that look alike come from different tables or passages of the source.

T1 sequence (Q96DE0 whole entry): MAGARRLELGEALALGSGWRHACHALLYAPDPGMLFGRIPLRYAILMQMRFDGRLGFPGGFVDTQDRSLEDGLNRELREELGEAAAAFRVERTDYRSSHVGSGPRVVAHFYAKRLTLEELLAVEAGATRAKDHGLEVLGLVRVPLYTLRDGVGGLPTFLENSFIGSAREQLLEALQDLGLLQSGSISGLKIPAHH
T2 sequence (Q96DE0 whole entry A22V): as the sequence (Q96DE0 whole entry) above, with A22V counted along it

In the case of `Nc1ncnc2c1ncn2[C@@H]1O[C@H](COP(=O)(O)OP(=O)(O)O)[C@@H](O)[C@H]1O` [ADP], at human NUDT16 (wild-type) [1] (NUDT16 wild-type), the “K m for ADP relative to XDP (times higher)” value was “about 30 times”; the “k cat for ADP relative to XDP (times higher)” value is on record as 15 times; the “k cat/K m, This work” value is 0.52 ± 0.10 10^3 s^-1M^-1; the “k cat, This work” value worked out at 0.0959 ± 0.00897 s⁻¹. In addition, the “K m, This work” value on human NUDT16 (wild-type) [1] (NUDT16 wild-type) was 185 ± 32 µM.
With `Nc1ncnc2c1ncn2[C@@H]1O[C@H](COP(=O)(O)O)[C@@H](O)[C@H]1O` [AMP], the Kd result at human NUDT16 (wild-type) [2] (ITC, 25°C, one binding-site model, 20 mM MgCl2, pH 7.5) is “too low for establishing good binding constants”.
`Nc1nc2c(ncn2[C@@H]2O[C@H](COP(=O)(O)OP(=O)(O)O)[C@@H](O)[C@H]2O)c(=O)[nH]1` [GDP]: in the test on NUDT16, the “K m, Ref. 14” value is 0.33 µM; the “k cat, Ref. 14” value was 0.00863 s⁻¹; the “k cat/K m, Ref. 14” value is 26.1 10^3 s^-1M^-1. Further, the “Hydrolysis by NUDT16 (qualitative)” value at human NUDT16 (wild-type) [1] is on record as “process efficiently”.
For `Nc1nc(=O)c2ncn([C@@H]3O[C@H](COP(=O)(O)O)[C@@H](O)[C@H]3O)c2[nH]1` [GMP], the equilibrium dissociation constant (Kd) at human NUDT16 (wild-type) [2] was determined as 34.25 ± 0.05 µM. The same molecule yielded a N sites on human NUDT16 (wild-type) [2] (setting [3]) of 1.080 ± 0.015.
Consider `O=P(O)(O)OP(=O)(O)OC[C@H]1O[C@@H](n2cnc3c(O)ncnc32)[C@H](O)[C@@H]1O` [IDP, inosine diphosphate], for which, in the test with NUDT16, the “K m, Ref. 14” value was 0.066 µM; the “k cat, Ref. 14” value is 0.0155 s⁻¹; the “k cat/K m, Ref. 14” value is on record as 251 10^3 s^-1M^-1. Also, the “K m for IDP relative to ITP (times lower)” value in the test on NUDT16 (ref 14 (Iyama et al.)) is reported as 350 times. Moreover, the “Hydrolysis by NUDT16 (qualitative)” value on human NUDT16 (wild-type) [1] is “process efficiently”.
For the molecule `O=c1[nH]cnc2c1ncn2[C@@H]1O[C@H](COP(=O)(O)OP(=O)(O)OP(=O)(O)O)[C@@H](O)[C@H]1O` [ITP], at NUDT16 A22V, the Km came out at 12.8 ± 1.46 µM and the “kcat, NUDT16 A22V” value turned out to be 0.00657 ± 0.000217 s⁻¹. For the same molecule, in the test on NUDT16, the “K m, Ref. 14” value was 22.1 µM; the “k cat, Ref. 14” value was 0.051 s⁻¹; the “k cat/K m, Ref. 14” value is given as 2.31 10^3 s^-1M^-1. At human NUDT16 (wild-type) [1] (NUDT16 wild-type), the “k cat/K m, This work” value is reported as 1.55 ± 0.20 10^3 s^-1M^-1; the “k cat, This work” value turned out to be 0.0127 ± 0.0005 s⁻¹; the “K m, This work” value was 8.23 ± 1.01 µM.
Regarding `O=c1[nH]c(=O)c2ncn([C@@H]3O[C@H](COP(=O)(O)OP(=O)(O)O)[C@@H](O)[C@H]3O)c2[nH]1` [XDP], at NUDT16 A22V, the Km is 9.7 ± 1.25 µM and the “kcat, NUDT16 A22V” value worked out at 0.00515 ± 0.0002 s⁻¹. Also, in the test with NUDT16, the “K m, Ref. 14” value is 15.7 µM; the “k cat, Ref. 14” value was 0.0433 s⁻¹; the “k cat/K m, Ref. 14” value is reported as 2.76 10^3 s^-1M^-1. In addition, at human NUDT16 (wild-type) [1] (NUDT16 wild-type), the “k cat/K m, This work” value is 0.99 ± 0.23 10^3 s^-1M^-1; the “k cat, This work” value was found to be 0.00613 ± 0.0013 s⁻¹; the “K m, This work” value is 6.22 ± 0.55 µM.
On human NUDT16 (wild-type) [2], `O=c1[nH]c(=O)c2ncn([C@@H]3O[C@H](COP(=O)(O)O)[C@@H](O)[C@H]3O)c2[nH]1` [XMP] gave an equilibrium dissociation constant (Kd) of 39.06 ± 0.07 µM. This molecule displayed a N sites on human NUDT16 (wild-type) [2] (setting [3]) of 0.821 ± 0.024.

For orientation: Kd means the free concentration of one partner at which half of the binding sites on the other are occupied at equilibrium, for simple one-to-one binding. The Km is the concentration of substrate that gives half-maximal velocity.

(Values after publication PMC4485890 (PLoS ONE, 2015).)
